System: HCV genotype-1a variant with glutamine 30 changed to glutamate in the NS5A protein
Format: cell-based
Conditions: test compound titrated with BMS-790052 fixed at 200 nM; genotype 1a Q30E replicon
How it was run: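 Synergy was assessed by combining several fixed amounts of an NS5A-targeting compound with a titration of the second compound of interest.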

CC1(C)CCN(C(=O)C(=O)N2C(C)(C)CCCC2(C)C)C1c1nc(-c2ccc(-c3ccc(-c4c[nH]c(C5N(C(=O)C(=O)N6C(C)(C)CCCC6(C)C)CCC5(C)C)n4)cc3)cc2)c[nH]1.O=C(O)C(F)(F)F.O=C(O)C(F)(F)F (centres unmarked) [Compound W-246]
Fold-Synergistic 1a (Q30E): >100 fold

CC(C)(C)[C@H](NC(=O)C(=O)N1C(C)(C)CCCC1(C)C)c1nc(-c2ccc(-c3ccc(-c4c[nH]c([C@@H](NC(=O)C(=O)N5C(C)(C)CCCC5(C)C)C(C)(C)C)n4)cc3)cc2)c[nH]1 [Compound W-248]
Fold-Synergistic 1a (Q30E): >100 fold

C[C@H]1CCN(C(=O)C(=O)N2C(C)(C)CCCC2(C)C)C1c1nc(-c2ccc(-c3ccc(-c4c[nH]c(C5[C@@H](C)CCN5C(=O)C(=O)N5C(C)(C)CCCC5(C)C)n4)cc3)cc2)c[nH]1 (some centres unmarked) [Compound W-249]
Fold-Synergistic 1a (Q30E): >100 fold

CCOC(=O)CC1(C(=O)N[C@H](c2nc(-c3ccc(-c4ccc(-c5c[nH]c([C@@H](NC(=O)C6(NC(=O)OCC)CCCCC6)C(C)(C)C)n5)cc4)cc3)c[nH]2)C(C)(C)C)CCCCC1 [Compound W-250]
Fold-Synergistic 1a (Q30E): >100 fold

CCNC(=O)NC1(C(=O)N[C@H](c2nc(-c3ccc(-c4ccc(-c5c[nH]c([C@@H](NC(=O)C6(NC(=O)NCC)CCCCC6)C(C)(C)C)n5)cc4)cc3)c[nH]2)C(C)(C)C)CCCCC1 [Compound W-251]
Fold-Synergistic 1a (Q30E): >100 fold

CC(=O)NC1(C(=O)N[C@H](c2nc(-c3ccc(-c4ccc(-c5c[nH]c([C@@H](NC(=O)C6(NC(C)=O)CCCCC6)C(C)(C)C)n5)cc4)cc3)c[nH]2)C(C)(C)C)CCCCC1 [Compound W-252]
Fold-Synergistic 1a (Q30E): >100 fold

CCCCC(=O)NC1(C(=O)N[C@H](c2nc(-c3ccc(-c4ccc(-c5c[nH]c([C@@H](NC(=O)C6(NC(=O)CCCC)CCCCC6)C(C)(C)C)n5)cc4)cc3)c[nH]2)C(C)(C)C)CCCCC1 [Compound W-253]
Fold-Synergistic 1a (Q30E): >100 fold

CC(C)(C)CC(=O)NC1(C(=O)N[C@H](c2nc(-c3ccc(-c4ccc(-c5c[nH]c([C@@H](NC(=O)C6(NC(=O)CC(C)(C)C)CCCCC6)C(C)(C)C)n5)cc4)cc3)c[nH]2)C(C)(C)C)CCCCC1 [Compound W-254]
Fold-Synergistic 1a (Q30E): >100 fold

CC(C)(C)[C@H](NC(=O)C1(NC(=O)CC(F)(F)F)CCCCC1)c1nc(-c2ccc(-c3ccc(-c4c[nH]c([C@@H](NC(=O)C5(NC(=O)CC(F)(F)F)CCCCC5)C(C)(C)C)n4)cc3)cc2)c[nH]1 [Compound W-255]
Fold-Synergistic 1a (Q30E): >100 fold

CC(C)(C)C(=O)NC1(C(=O)N[C@H](c2nc(-c3ccc(-c4ccc(-c5c[nH]c([C@@H](NC(=O)C6(NC(=O)C(C)(C)C)CCCCC6)C(C)(C)C)n5)cc4)cc3)c[nH]2)C(C)(C)C)CCCCC1 [Compound W-262]
Fold-Synergistic 1a (Q30E): >100 fold

COCC(=O)NC1(C(=O)N[C@H](c2nc(-c3ccc(-c4ccc(-c5c[nH]c([C@@H](NC(=O)C6(NC(=O)COC)CCCCC6)C(C)(C)C)n5)cc4)cc3)c[nH]2)C(C)(C)C)CCCCC1 [Compound W-263]
Fold-Synergistic 1a (Q30E): >100 fold

CC(C)(C)[C@H](NC(=O)C1(NC(=O)C2CC2)CCCCC1)c1nc(-c2ccc(-c3ccc(-c4c[nH]c([C@@H](NC(=O)C5(NC(=O)C6CC6)CCCCC5)C(C)(C)C)n4)cc3)cc2)c[nH]1 [Compound W-264]
Fold-Synergistic 1a (Q30E): >100 fold

CCC(=O)NC1(C(=O)N[C@H](c2nc(-c3ccc(-c4ccc(-c5c[nH]c([C@@H](NC(=O)C6(NC(=O)CC)CCCCC6)C(C)(C)C)n5)cc4)cc3)c[nH]2)C(C)(C)C)CCCCC1 [Compound W-265]
Fold-Synergistic 1a (Q30E): >100 fold

CC(C)C(=O)NC1(C(=O)N[C@H](c2nc(-c3ccc(-c4ccc(-c5c[nH]c([C@@H](NC(=O)C6(NC(=O)C(C)C)CCCCC6)C(C)(C)C)n5)cc4)cc3)c[nH]2)C(C)(C)C)CCCCC1 [Compound W-266]
Fold-Synergistic 1a (Q30E): >100 fold

CN(C)C(=O)C(=O)NC1(C(=O)N[C@H](c2nc(-c3ccc(-c4ccc(-c5c[nH]c([C@@H](NC(=O)C6(NC(=O)C(=O)N(C)C)CCCCC6)C(C)(C)C)n5)cc4)cc3)c[nH]2)C(C)(C)C)CCCCC1 [Compound W-268]
Fold-Synergistic 1a (Q30E): >100 fold

CC(C)(C)[C@H](NC(=O)C1(NC(=O)C(F)(F)F)CCCCC1)c1nc(-c2ccc(-c3ccc(-c4c[nH]c([C@@H](NC(=O)C5(NC(=O)C(F)(F)F)CCCCC5)C(C)(C)C)n4)cc3)cc2)c[nH]1.O=C(O)C(F)(F)F.O=C(O)C(F)(F)F [Compound W-269]
Fold-Synergistic 1a (Q30E): >100 fold

[2H]C([2H])([2H])C(=O)NC1(C(=O)N[C@H](c2nc(-c3ccc(-c4ccc(-c5c[nH]c([C@@H](NC(=O)C6(NC(=O)C([2H])([2H])[2H])CCCCC6)C(C)(C)C)n5)cc4)cc3)c[nH]2)C(C)(C)C)CCCCC1 [Compound W-272]
Fold-Synergistic 1a (Q30E): >100 fold

CC(C)(C)[C@H](NC(=O)C1(NC(=O)CC2CC2)CCCCC1)c1nc(-c2ccc(-c3ccc(-c4c[nH]c([C@@H](NC(=O)C5(NC(=O)CC6CC6)CCCCC5)C(C)(C)C)n4)cc3)cc2)c[nH]1 [Compound W-276]
Fold-Synergistic 1a (Q30E): >100 fold

CC(C)OC(C)(C)C(=O)N[C@H](c1nc(-c2ccc(-c3ccc(-c4c[nH]c([C@@H](NC(=O)C(C)(C)OC(C)C)C(C)(C)C)n4)cc3)cc2)c[nH]1)C(C)(C)C [Compound Y-1]
Fold-Synergistic 1a (Q30E): >100 fold

CC(C)(OCC(F)(F)F)C(=O)N[C@H](c1nc(-c2ccc(-c3ccc(-c4c[nH]c([C@@H](NC(=O)C(C)(C)OCC(F)(F)F)C(C)(C)C)n4)cc3)cc2)c[nH]1)C(C)(C)C [Compound Y-2]
Fold-Synergistic 1a (Q30E): >100 fold

CC(C)(OCCF)C(=O)N[C@H](c1nc(-c2ccc(-c3ccc(-c4c[nH]c([C@@H](NC(=O)C(C)(C)OCCF)C(C)(C)C)n4)cc3)cc2)c[nH]1)C(C)(C)C [Compound Y-3]
Fold-Synergistic 1a (Q30E): >100 fold

CC(C)(Oc1ccccc1F)C(=O)N[C@H](c1nc(-c2ccc(-c3ccc(-c4c[nH]c([C@@H](NC(=O)C(C)(C)Oc5ccccc5F)C(C)(C)C)n4)cc3)cc2)c[nH]1)C(C)(C)C [Compound Y-4]
Fold-Synergistic 1a (Q30E): >100 fold

CC(C)(C)[C@H](NC(=O)C1CCCCO1)c1nc(-c2ccc(-c3ccc(-c4c[nH]c([C@@H](NC(=O)C5CCCCO5)C(C)(C)C)n4)cc3)cc2)c[nH]1 (some centres unmarked) [Compound Y-5]
Fold-Synergistic 1a (Q30E): >100 fold

CC(C)(C)[C@H](NC(=O)C1CCCCO1)c1nc(-c2ccc(-c3ccc(-c4c[nH]c([C@@H](NC(=O)C5CCCCO5)C(C)(C)C)n4)cc3)cc2)c[nH]1 (some centres unmarked) [Compound Y-6]
Fold-Synergistic 1a (Q30E): >100 fold

CC(C)(C)[C@H](NC(=O)C1C2CC(F)(F)CC21)c1nc(-c2ccc(-c3ccc(-c4c[nH]c([C@@H](NC(=O)C5C6CC(F)(F)CC65)C(C)(C)C)n4)cc3)cc2)c[nH]1 (some centres unmarked) [Compound Y-7]
Fold-Synergistic 1a (Q30E): >100 fold

CC(C)(CC(F)(F)F)C(=O)N[C@H](c1nc(-c2ccc(-c3ccc(-c4c[nH]c([C@@H](NC(=O)C(C)(C)CC(F)(F)F)C(C)(C)C)n4)cc3)cc2)c[nH]1)C(C)(C)C [Compound Y-8]
Fold-Synergistic 1a (Q30E): >100 fold

— patent US20160158200A1, “Combinations of Hepatitis C Virus Inhibitors” (priority 2013, published 2016)
